{
  "source": "paper PMC8455565",
  "about": "(Scientific Reports, 2021)",
  "key": {"BTK": {"biological_target": "T1, BTK (Rattus norvegicus, UniProt Q5S255)", "T1 construct": "endogenous in cells; host or cells: rat PBMCs (normal rats in vitro; CIA model rats ex vivo)", "T1 sequence (Q5S255 1-660)": "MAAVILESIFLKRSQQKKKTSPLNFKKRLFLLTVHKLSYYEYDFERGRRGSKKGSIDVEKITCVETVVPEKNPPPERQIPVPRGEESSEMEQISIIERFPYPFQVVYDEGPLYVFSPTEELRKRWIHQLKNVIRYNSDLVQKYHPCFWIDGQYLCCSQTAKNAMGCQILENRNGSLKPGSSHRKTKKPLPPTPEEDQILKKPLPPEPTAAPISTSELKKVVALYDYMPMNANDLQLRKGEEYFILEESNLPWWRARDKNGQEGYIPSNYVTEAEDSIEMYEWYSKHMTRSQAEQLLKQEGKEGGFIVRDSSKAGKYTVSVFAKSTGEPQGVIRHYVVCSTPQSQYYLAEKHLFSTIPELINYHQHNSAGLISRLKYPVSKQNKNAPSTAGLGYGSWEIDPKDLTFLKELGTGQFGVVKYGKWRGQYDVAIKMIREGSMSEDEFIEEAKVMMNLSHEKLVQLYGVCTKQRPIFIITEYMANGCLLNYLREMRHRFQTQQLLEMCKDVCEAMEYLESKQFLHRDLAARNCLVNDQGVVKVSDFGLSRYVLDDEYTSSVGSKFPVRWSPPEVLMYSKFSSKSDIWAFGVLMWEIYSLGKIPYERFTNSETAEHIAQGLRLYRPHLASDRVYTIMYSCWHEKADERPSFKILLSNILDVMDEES", "assay": "BTK occupancy molecular probe assay in rat PBMCs", "assay_type": "cell-based", "conditions": "1 h treatment, biotinylated probe; read-out: IC50, BTK target modulation (occupancy) in rat PBMCs", "description": "The BTK occupancy assay and analysis of BTK phosphorylation inhibition were performed as described previously. Briefly, isolated PBMCs were lysed with RIPA buffer (R0278, Sigma-Aldrich) containing 1 × protease/phosphatase inhibitor (1861281, Thermo Fisher Scientific) and EDTA (1861274, Thermo Fisher Scientific). The supernatants were collected by 10 min at 14,000 × g in microcentrifuge at 4 °C and biotinylated probe was added to bind free BTK for 1 h. Rabbit anti-BTK Ab (1:5000 in 1% BSA) bound the captured BTK/probe complex, and was detected with […] antibody conjugated with HRP then ultra-TMB solution was added to each well for the free BTK analysis. Analysis of free and total BTK levels for the phase I study was conducted by Cambridge Biomedical Inc. (MA, USA). BTK occupancy was calculated by taking the free BTK and total BTK results from a given donor and used the following formula: %BTKoccupancy=100%-FreeBTK/totalBTK×100.\nBTK occupancy (%) was calculated from the free BTK percentage, which was compared with that of the untreated control group. […] Bone erosion ( →) was quantified a subchondral and bone destruction and synovitis (*) was scored degree of pannus formation, including synovial inflammation, hypertrophy, interstitial edema, and fibrosis (H&E). Cartilage damage (□) was semiquantitatively scored as an intensity of Safranin-O staining (red). […]"}, "B cells": {"test_system": "B cells", "assay": "B cell inhibition in whole blood", "assay_type": "cell-based"}, "CD8+ Memory (CD3+CD28)": {"test_system": "CD8+ Memory (CD3+CD28)", "assay": "High-dimensional phosphorylation analysis, CD8+ Memory (CD3+CD28)", "assay_type": "cell-based, human", "conditions": "30 µM, 5'", "description": "(§1) The analysis measured 94 intracellular signaling nodes (81 phosphorylation sites, 10 total protein levels and 3 methylation/acetylation sites) in stimulated immune cells, including B cells (IgM plus CD40L), CD4 + and CD8 + T cells (IL-2; CD3 plus CD28), monocytes (M-CSF), NK cells (IL-2), and granulocytes (LPS)."}, "CIA model rats": {"test_system": "CIA model rats", "assay": "Collagen-induced arthritis (CIA) model, clinical score and body weight", "assay_type": "in vivo, rat", "conditions": "for Arthritis clinical score: day 8, mean ± SEM", "description": "All animals were obtained from Charles River Japan (150 ± 10 g, 6 weeks old). The experimental protocols were approved by the animal care and use committee of the Hanmi Research Center and performed in accordance with approved guidelines. Briefly, 7-week-old male Lewis rats were immunized with a collagen emulsion of equal volumes of IFA ([…], Sigma-Aldrich) and bovine type II collagen (total volume, 0.6 mL) via intradermal injection into the base of the tail. Seven days later, the rats were given a booster immunization of 0.3 ml of collagen emulsion in the same manner. The incidence of arthritis was 79% on day 6 after booster immunization, and the rats were randomized into 4 groups when the average clinical score of each animal was 2.8 (on a scale of 16) (n = 20 in each drug-administered group, n = 8 in the CIA control group). […] The arthritis score was determined by grading each paw from 0 to 4 based on erythema, swelling, and flexion of the joint. Body weight was also measured three times per week."}, "ITK": {"biological_target": "T2, ITK (Homo sapiens, UniProt Q08881)", "T2 sequence (Q08881 1-620)": "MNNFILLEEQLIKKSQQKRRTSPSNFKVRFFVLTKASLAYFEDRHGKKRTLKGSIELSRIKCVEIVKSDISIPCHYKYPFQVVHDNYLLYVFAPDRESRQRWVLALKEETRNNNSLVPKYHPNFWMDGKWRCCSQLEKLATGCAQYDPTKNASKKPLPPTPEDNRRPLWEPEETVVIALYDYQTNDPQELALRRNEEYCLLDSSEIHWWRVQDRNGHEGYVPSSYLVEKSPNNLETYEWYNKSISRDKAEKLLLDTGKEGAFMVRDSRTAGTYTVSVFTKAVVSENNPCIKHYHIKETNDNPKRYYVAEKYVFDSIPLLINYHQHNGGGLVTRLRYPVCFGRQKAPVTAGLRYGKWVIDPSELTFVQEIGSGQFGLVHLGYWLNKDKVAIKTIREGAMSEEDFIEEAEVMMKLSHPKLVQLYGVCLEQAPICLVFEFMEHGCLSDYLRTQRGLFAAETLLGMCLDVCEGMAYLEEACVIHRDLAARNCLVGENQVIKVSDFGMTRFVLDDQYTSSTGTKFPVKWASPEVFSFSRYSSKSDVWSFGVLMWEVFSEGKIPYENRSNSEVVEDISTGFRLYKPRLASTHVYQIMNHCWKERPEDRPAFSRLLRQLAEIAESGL", "assay": "Kinase selectivity biochemical assay, ITK"}, "B cells (IgM+CD40L)": {"test_system": "B cells (IgM+CD40L)", "assay": "High-dimensional phosphorylation analysis, B cells (IgM+CD40L)", "assay_type": "cell-based, human", "description": "as §1"}, "[1]": {"conditions": "30 μM, all time points (2, 5, 15, 60 min)"}},
  "data": [
    {"smiles": "C=CC(=O)Nc1cccc(Oc2nc(Nc3ccc(N4CCN(C)CC4)cc3)nc3ccoc23)c1", "note": "[Poseltinib]", "values": [
      {"measurement": "IC50", "setting": "BTK", "result": "14.6 ± 3.3", "unit": "nM"},
      {"measurement": "IC50", "setting": "B cells", "result": 420, "unit": "nM"},
      {"measurement": "BTK phosphorylation, Log2Ratio Stim/Control", "setting": "CD8+ Memory (CD3+CD28)", "result": 1.34},
      {"measurement": "CrL phosphorylation, Log2Ratio Stim/Control", "setting": "CD8+ Memory (CD3+CD28)", "result": 1.59},
      {"measurement": "HS1 phosphorylation, Log2Ratio Stim/Control", "setting": "CD8+ Memory (CD3+CD28)", "result": 0.56},
      {"measurement": "LCK phosphorylation, Log2Ratio Stim/Control", "setting": "CD8+ Memory (CD3+CD28)", "result": 1.52},
      {"measurement": "PLCγ2 phosphorylation, Log2Ratio Stim/Control", "setting": "CD8+ Memory (CD3+CD28)", "result": 2.55},
      {"measurement": "RPS6KA1 phosphorylation, Log2Ratio Stim/Control", "setting": "CD8+ Memory (CD3+CD28)", "result": 0.47},
      {"measurement": "SRC phosphorylation, Log2Ratio Stim/Control", "setting": "CD8+ Memory (CD3+CD28)", "result": 0.80},
      {"measurement": "WIPF1 phosphorylation, Log2Ratio Stim/Control", "setting": "CD8+ Memory (CD3+CD28)", "result": 0.82},
      {"measurement": "ZAP70 phosphorylation, Log2Ratio Stim/Control", "setting": "CD8+ Memory (CD3+CD28)", "result": 1.33},
      {"measurement": "Arthritis clinical score", "setting": "CIA model rats; 0.3 mg/kg oral once daily", "result": "8.5 ± 0.5"},
      {"measurement": "Arthritis clinical score", "setting": "CIA model rats; 1 mg/kg oral once daily", "result": "6.7 ± 0.6"},
      {"measurement": "disease-induced body weight loss", "setting": "CIA model rats; 3 mg/kg", "result": "prevented weight loss"},
      {"measurement": "Arthritis clinical score", "setting": "CIA model rats; 3 mg/kg oral once daily", "result": "2.7 ± 0.4"},
      {"measurement": "selectivity toward BTK over ITK", "setting": "ITK", "result": 53, "unit": "×"},
      {"measurement": "Akt phosphorylation, Log2Ratio Stim/Control", "setting": "B cells (IgM+CD40L); 30 µM, 5'", "result": -0.97},
      {"measurement": "BTK phosphorylation, Log2Ratio Stim/Control", "setting": "B cells (IgM+CD40L); 30 µM, 5'", "result": 0.06},
      {"measurement": "CREB1 phosphorylation, Log2Ratio Stim/Control", "setting": "B cells (IgM+CD40L); 30 µM, 5'", "result": 1.74},
      {"measurement": "MAPK3 phosphorylation, Log2Ratio Stim/Control", "setting": "B cells (IgM+CD40L); 30 µM, 5'", "result": 1.30},
      {"measurement": "PLCγ2 phosphorylation, Log2Ratio Stim/Control", "setting": "B cells (IgM+CD40L); 30 µM, 5'", "result": 0.82},
      {"measurement": "RPS6KA1 phosphorylation, Log2Ratio Stim/Control", "setting": "B cells (IgM+CD40L); 30 µM, 5'", "result": 1.13},
      {"measurement": "RPS6 phosphorylation, Log2Ratio Stim/Control", "setting": "B cells (IgM+CD40L); 30 µM, 5'", "result": 1.35},
      {"measurement": "SAPK/JNK phosphorylation, Log2Ratio Stim/Control", "setting": "B cells (IgM+CD40L); 30 µM, 5'", "result": 0.82},
      {"measurement": "SLP76 phosphorylation, Log2Ratio Stim/Control", "setting": "B cells (IgM+CD40L); 30 µM, 5'", "result": 0.86},
      {"measurement": "WIPF1 phosphorylation, Log2Ratio Stim/Control", "setting": "B cells (IgM+CD40L); 30 µM, 5'", "result": 1.81},
      {"measurement": "phosphorylation of AKT (S473)", "setting": "B cells (IgM+CD40L); [1]", "result": "inhibited"},
      {"measurement": "phosphorylation of BTK (Y223)", "setting": "B cells (IgM+CD40L); [1]", "result": "inhibited"},
      {"measurement": "phosphorylation of PLCγ2 (Y759)", "setting": "B cells (IgM+CD40L); [1]", "result": "inhibited"}
    ]}
  ]
}
